Measurements as given in US12678423B2, “Therapeutic agent for amyotrophic lateral sclerosis and composition for treatment” (KEIO UNIVERSITY, priority 2016, dated 2026).

What was measured:
Type in all cases: cell-based, human
[1] = tested on: motor neurons induced to differentiate from iPS cells derived from ALS patients (FUS-ALS) having a mutation in FUS; test: Stress granule formation (G3BP immunostaining), FUS-ALS motor neurons
Experimental: On day 40 from the start of differentiation induction, the formation of stress granules was examined using each differentiation-induced motor neuron in Example I-1. The detection of stress granules was performed by immunostaining with G3BP, which is a marker of stress granules.
(§1) Using the differentiation-induced motor neurons in Example I-1, drugs which cause the ALS phenotype to be restored were screened from existing drug libraries with the neurite length, ectopic localization of FUS protein, stress granule formation, LDH leakage ratio, CV-caspase 3-positive ratio, phosphorylated TDP-43 protein inclusion formation, and the like as indices.
(§2) As a result of the screening, ropinirole was found as a promising therapeutic agent for ALS. Tables 5 and 6 show the improvement ratio (%) in the ALS phenotype due to adding ropinirole to the medium. Here, ropinirole was added to the medium on days 35 to 40 from the start of the differentiation induction of each iPS cell. Here, it is assumed that days 35 to 40 from the start of differentiation induction correspond to the early stage of the ALS disease.
(§3) The improvement ratio (%) of the ALS phenotype was calculated by Equation (1).
(§4) [formula] [In Equation (1), A represents a measurement value of motor neurons induced to differentiate from iPS cells derived from ALS patients in the absence of ropinirole, and B represents a measurement value of motor neurons induced to differentiate from iPS cells derived from ALS patients in the presence of ropinirole, and C represents a measurement value of motor neurons induced to differentiate from iPS cells derived from healthy subjects in the absence of ropinirole.]
(§5) Subsequently, in the same manner as above, the efficacy in cases of administering lower concentrations of ropinirole was evaluated.
(§6) Each drug was added to the medium at a final concentration of 10 μM.

[2] = tested on: motor neurons induced to differentiate from iPS cells derived from ALS patients (FUS-ALS) having a mutation in FUS; test: Neurite length, FUS-ALS motor neurons (screening, Example I-8)
Experimental: For each differentiation-induced motor neuron in Example I-1, the changes over time in the neurite length were measured. A Bio station CT (Nikon Corp.) was used to measure the neurite length over time. FIG. 1 is a graph showing measurement results of changes over time in the neurite length. The vertical axis represents neurite length (relative value), and the horizontal axis represents the number of days of culturing from the start of differentiation induction.
as §1, §2, §3, §4, §5, §6

[3] = tested on: motor neurons induced to differentiate from iPS cells derived from SALS patients; test: LDH leakage ratio, sporadic ALS model (Example III-3); conditions: final concentration 1 μM, days 35 to 40, measured on day 40, FIG. 12
From the text: In the same manner as in Example I-1, iPS cells derived from sporadic ALS (may be referred to below as “SALS”) patients were differentiated into motor neurons. All the iPS cells used were derived from dermal fibroblasts. Below, each differentiated motor neuron is identified by the patient number from whom the neuron was derived.
In the same manner as in Example II-1, iPS cells derived from sporadic ALS (SALS) patients were induced to differentiate into motor neurons, and then ropinirole with a final concentration of 1 μM was added to the medium. More specifically, for the period of days 35 to 40 from the start of differentiation induction, ropinirole having a final concentration of 1 μM was added to the medium. In addition, a group for which ropinirole was not added to the medium was prepared as a control. In addition, for comparison, iPS cells derived from healthy subjects were differentiated into motor neurons in the same manner as in Example I-1. No ropinirole was added to the medium of these motor neurons. As the iPS cells derived from a healthy subject, the same cells as used in Example I-1 were used.
Subsequently, on day 40 from the start of differentiation induction, the LDH leakage ratio was measured for each motor neuron in the same manner as in Example I-4.
FIG. 12 is a graph showing the measurement result of the LDH leakage ratio. […]

[4] = final concentration 1 μM, added days 35 to 40
[5] = final concentration 10 μM, added days 35 to 40

CCCN(CCC)CCc1cccc2c1CC(=O)N2 [Ropinirole, 4-(2-di-n-propylaminoethyl)-2(3H)-indole]
Stress granule formation improvement ratio ([1]; final concentration 0.1 nM): 8.2% | Stress granule formation improvement ratio ([1]; final concentration 1 nM): 23.2% | Stress granule formation improvement ratio ([1]; final concentration 10 nM): 39.3% | Stress granule formation improvement ratio ([1]; final concentration 0.1 μM, added days 35 to 40): 36.6% | Stress granule formation improvement ratio [1, 4]: 34.4% | Stress granule formation improvement ratio [1, 5]: 66.1% | Neurite length improvement ratio ([2]; final concentration 0.1 nM): 3.22% | Neurite length improvement ratio ([2]; final concentration 1 nM): 32.3% | Neurite length improvement ratio ([2]; final concentration 10 nM): 45.8% | Neurite length improvement ratio ([2]; final concentration 0.1 μM, added days 35 to 40 from start of differentiation induction): 43.3% | Neurite length improvement ratio [2, 4]: 58.3% | Neurite length improvement ratio [2, 5]: 61.3% | LDH leakage ratio [3]: significantly decreased
